From patent EP1311531B1, “STEROID DERIVED ANTIBIOTICS” (Brigham Young University, priority 2000, dated 2002)
Converted amounts (≈) assume the structure as drawn.

Experiments:
Gram-negative bacteria = assay: MIC and permeabilization measurements, strain not stated (Table 14, Fig. 5)
[1] = Stability (half-lives) in phosphate buffer, decomposition observed via HPLC; format: physicochemical; details: 50 mM phosphate buffer, room temperature
Method: Compounds 352 - 354 were dissolved in 50 mM phosphate buffered water (pH 2.0, 7.0 or 12.0) at approximately 10 mM concentrations. […] These compounds were used since they contain a chromophore that facilitated monitoring of decomposition by absorption methods common in the HPLC apparatus used.

## C[C@H](CCCN)[C@H]1CC[C@H]2[C@@H]3[C@H](OCCCN)C[C@@H]4C[C@H](OCCCN)CC[C@]4(C)[C@H]3C[C@H](OCCCN)[C@]12C [Compound 135]
Gram-negative bacteria; in words, text on Fig. 5
  MBC: relatively high
  MIC: relatively high

## C[C@H](CCCO)[C@H]1CC[C@H]2[C@@H]3[C@H](N)C[C@@H]4C[C@H](N)CC[C@]4(C)[C@H]3C[C@H](N)[C@]12C [Compound 206]
Gram-negative bacteria; in words
  activity as a permeabilizer: ineffective as a permeabilizer

## CC(CCCO)C1CCC2C3C(NC(=O)C(N)CCCCN)CC4CC(NC(=O)C(N)CCCCN)CCC4(C)C3CC(NC(=O)C(N)CCCCN)C12C (stereo not shown) [Compound 209c]
Gram-negative bacteria; Table 14
  MIC: 85 mg/L (≈ 110 µM)
  a: concentration of cholic acid derivatives required to lower MIC of erythromycin to 1 µg/ML: 45 mg/L
  b: concentration of cholic acid derivatives required to lower MIC of novobiocin to 1 µg/ML: 60 mg/L

## C[C@H](CCCO)[C@H]1CC[C@H]2[C@@H]3[C@H](NC(=O)CCCCCN)C[C@@H]4C[C@H](NC(=O)CCCCCN)CC[C@]4(C)[C@H]3C[C@H](NC(=O)CCCCCN)[C@]12C [Compound 211]
Gram-negative bacteria; in words
  activity as a permeabilizer: less active than 209c as a permeabilizer

## C[C@H](CCCN(C)Cc1ccccc1)[C@H]1CC[C@H]2[C@@H]3[C@H](OC(=O)CCCN)C[C@@H]4C[C@H](OC(=O)CCCN)CC[C@]4(C)[C@H]3C[C@H](OC(=O)CCCN)[C@]12C [Compound 354]
[1]; pH 2.0, approximately 10 mM
  stabilities (half-lives) pH 2.0: 33 days
[1]; pH 7.0, approximately 10 mM
  stabilities (half-lives) pH 7.0: 12 days
[1]; pH 12.0, approximately 10 mM
  stabilities (half-lives) pH 12.0: <30 minutes
